From article PMC5609913, “Structure based design, synthesis and activity studies of small hybrid molecules as HDAC and G9a dual inhibitors” (Oncotarget, 2017)

Experiments:
A549 cells = test: Cell anti-proliferation / toxicity assay (CCK-8), A549; format: cell-based; conditions: Homo sapiens, Table 6, 72 h, >100 = not reached at highest tested concentration (100 μM)
Method: (§1) Cell anti-proliferation assays were performed to determine the toxicity of these inhibitors. […] These compounds were further evaluated against the control cell line HEK293 to test their toxicity with a non-cancerous cell line.
(§2) And then the cells were exposed to the different inhibitors with various concentrations for 72 h. […] EC50s were calculated using GraphPad Prizm statistical package with sigmoidal variable slope dose response curve fit.

HEK293 cells = test: Cell anti-proliferation / toxicity assay (CCK-8), HEK293 normal cell line; format: cell-based; conditions: Homo sapiens, Table 6, 72 h
Method: as §1, §2

HDAC [1] = test: Homogeneous cellular histone deacetylase assay, Hela; format: cell-based, human; conditions: Table 3; Boc-K(Ac)-AMC substrate, intact Hela cells; read-out: Hela IC50
Method: (§3) The enzymatic activity of HDAC was measured in intact cells using the homogeneous cellular assay method. A cell-permeable peptide Boc-K(Ac)-AMC used as the HDAC substrate, after deacetylation it is cleaved by trypsin to release the fluorescent 7-amino-4-methylcoumarin (AMC) and further quantified.
(§4) The manual assay was developed by Thomas's group. […] After 24 h, 9 μl inhibitors with different concentration were added to the HeLa cells and incubation was continued for 3 h under cell culture conditions. After this treatment period, 10 μl of a 2 mM stock solution of the substrate Boc-K(Ac)-AMC was added into the 96 well plates with Hela cells and inhibitors. […] A549 and K562 cell lines used the same method, respectively. IC50s were calculated using GraphPad Prizm statistical package with sigmoidal variable slope dose response curve fit.

HDAC [2] = test: Homogeneous cellular histone deacetylase assay, K562; format: cell-based, human; conditions: Table 3; Boc-K(Ac)-AMC substrate, intact K562 cells; read-out: K562 IC50
Method: as §3, §4

HDAC [3] = test: Homogeneous cellular histone deacetylase assay, A549; format: cell-based, human; conditions: Supplementary Table 2; NA = not active up to highest concentration tested (100 μM); >100 = IC50 not reached at 100 μM
Method: as §3, §4

[4] = biological target: T1, Mouse histone methyltransferase G9a (969-1263) (Mus musculus, UniProt Q9Z148); test: MALDI-TOF methylation study of G9a enzymatic activity (H3 peptide, SAM); format: biochemical; conditions: Supplementary Table 1; inhibitor 5 μM, 30 min; average of 3 values
T1 construct: The 6His-sumo mG9a (969-1263) protein was purified using the following procedure; 6His-sumo (N, cleaved yes); made in house; host or cells: Escherichia coli BL21 (DE3)
T1 sequence (Q9Z148 969-1263): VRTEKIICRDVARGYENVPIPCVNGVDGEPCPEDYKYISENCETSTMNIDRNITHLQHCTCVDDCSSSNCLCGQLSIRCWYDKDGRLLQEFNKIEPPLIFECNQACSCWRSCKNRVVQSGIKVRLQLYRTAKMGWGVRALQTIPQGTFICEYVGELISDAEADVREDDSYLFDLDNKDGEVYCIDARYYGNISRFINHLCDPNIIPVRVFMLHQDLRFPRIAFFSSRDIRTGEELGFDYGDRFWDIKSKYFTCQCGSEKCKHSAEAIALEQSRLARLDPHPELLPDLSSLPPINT
Method: Figure 3 compounds were synthesized from the commercially available starting material 1. An initial displacement reaction using a primary amine was used to introduce the C4 selective substitution, with the second displacement to introduce the linker at the C2 position following the microwave assisted reaction previously reported. Boc-protected ethylene diamine was treated with compound 2 at 160°C in a microwave for 10 min to yield product 3 with excellent yield. Afterward, the amine 3 was deprotected with TFA/DCM, and the free amine was treated with corresponding monomethyl esters (carbon chain 2-6) in the presence of coupling reagent EDCI and HOBt for about 8 hours to produce mono methyl ester substituted at the C2 position. The ester compounds further treated with hydroxylamine in water to get the corresponding hydroxamic acid derivatives, which were purified using reverse phase flash chromatography to obtain compounds 4-7 and 4a-7a in good yield. Synthesis of compounds in Figure 4 requires the C6 demethoxy core, and this was synthesized according to the reported procedure to yield 10 [45]. […] Compounds with the HDAC pharmacophore at the C4 position (Figure 2B) were synthesized from the starting material 1. […] A parallel synthesis and testing strategy were used in establishing the primary SAR, with the clear rationalization of the structure and activity at each stage we could reduce the synthetic targets. Initially, we evaluated the G9a potential after the introduction of HDAC pharmacophore. A biochemical assay using MALDI-TOF was used to visualize the effects of the synthesized compounds on G9a enzymatic activity, we carried out a biochemical reaction involving target enzyme G9a, methyl donor SAM and substrate H3 peptide at a concentration of 400 nM, 10 μM and 5 μM respectively.
Mouse histone methyltransferase G9a (969-1263) cDNA was amplified from the cDNA of BALB/c mouse thymus, and the fragment was sub-cloned into a vector with a 6His-sumo tag. The mouse G9a (mG9a) was expressed in Escherichia coli BL21 (DE3) by the addition of 1 mM isopropyl-1-thio-D-galactopyranoside (IPTG) and incubated overnight at 16°C.
The in vitro inhibition of G9a by the synthesized compounds were measured by MALDI-TOF mass spectrum (Bruker MALDI TOF/TOF Analyzer). 400 nM purified G9a, 5 μM synthesized histone H3 (1-21) and 10 μM non-radioactive S-adenosyl methionine (Sigma) were added in reaction buffer (50 mM HEPES pH 8.0, 5 μg/ml BSA and 0.1% β-Mercaptoethanol) with or without inhibitors (5 μM). The reaction was incubated at room temperature for 30 min, and stopped by TFA. 1 μl of the sample was mixed with CHCA matrix and m/z peaks were obtained at reflection positive mode. The results of mass spectrum were analyzed using the Bruker flex analysis software, a detailed description of data processing is provided as supplementary information (S3).
[…]
MALDI spectrums were collected using Bruker flex % conversion to product is also C, from this to get the control software and analyzed by flex analysis. After %maximal activity (%MA), C was compared to the % labelling each cluster peaks of H3K9Me0, H3K9Me1 conversion when no inhibitor was used (D). and H3K9Me2 for all of the tested concentrations, area Finally % inhibition was found by subtracting under the cluster (AUC) were extracted by using the same %MA from 100 […]
flex analysis software. % abundance of each peak was Example: % methylation levels and % inhibition calculated by following formula, when used 5 μM compound 14
A = % Abundance of (H3K9Me0) = area of A = 13.09
B = % Abundance of (H3K9Me1) = area of % conversion when no inhibitor was used D = 84.43 H3K9Me1/ (area of H3K9Me0+area of H3K9Me1 + area (average of six measurements) […]

IC50 (HDAC [1]): 15.3 ± 0.79 µM
IC50 (HDAC [2]): 27.8 ± 0.59 µM
IC50 (HDAC [3]): > 100 µM
inhibition at 5 µM [4]: 24.9 ± 17.4%
SMILES: COc1ccc2c(NC3CCN(Cc4ccccc4)CC3)nc(NCCNC(=O)CCCCCCC(=O)NO)nc2c1 [Compound 13, N1-(2-((4-((1-benzylpiperidin-4-yl)amino)-7-methoxyquinazolin-2-yl)amino)ethyl)-N8-hydroxyoctanediamide]
EC50 (A549 cells): > 100 µM
EC50 (HEK293 cells): 57 ± 1.12 µM
